Assay results from patent publication US11253486B2, “Bakuchiol compositions for treatment of post inflammatory hyperpigmentation” (Unigen, Inc., priority 2011, dated 2022).

Key:
[1] = system: acne lesions and Post Inflammatory Hyperpigmentation; conditions: OTC drugs, Studies 1-3, 10 or 12 week studies; cited from earlier work
mushroom tyrosinase = mushroom tyrosinase (Agaricus bisporus, UniProt C7FF04); assay: Tyrosinase inhibition assay (L-DOPA to dopachrome); type: biochemical; conditions: eight different dosages; <100 ppm furanocoumarins; FIG. 4
Procedure: A tyrosinase inhibition assay was carried out using the method reported by Jones et al. (2002) Pigment. […] Using this method, the conversion of L-Dopa, a substrate of tyrosinase, into dopachrome was followed by monitoring absorption at 450 nm. Tyrosinase was prepared in 50 mM potassium phosphate buffer, pH 6.8 (assay buffer) at 2000 U/ml and stored at −20° C. in 1 ml aliquots prior to use. For use in assays, stock enzyme solutions were thawed and diluted to 200 U/ml with assay buffer. A 2 mM working solution of substrate, L-DOPA, was prepared in assay buffer for each assay. Samples were dissolved in 10% DMSO (0.5 ml) and diluted to 5 ml with assay buffer. The reaction mixture comprised 0.050 ml 2 mM L-DOPA, 0.050 ml 200 U/ml mushroom tyrosinase and 0.050 ml inhibitor. Reaction volume was adjusted to 200 μl with assay buffer. Assays were performed in 96 well Falcon 3097 flat-bottom microtiter plates (Beckton Dickinson, N.J.). Appearance of dopachrome was measured with a WALLAC 1420 Multilable Counter (Turku, Finland). Average velocity was determined from linear enzyme rate as measured by change in absorbance (ΔA450) at 450 nm per minute. Percent inhibition of tyrosinase by test samples was determined by comparison of absorbance of samples versus control using formula (1): (Negative control absorption−sample absorption)/Negative control absorption×100 (1)

[2] = Percutaneous absorption ex-vivo test; type: in vitro ADME, human; conditions: 0.5% formulation concentration, single application, over 48 hours
Description: The partition coefficient of a chemical compound provides a thermodynamic measure of its hydrophilicity/lipophilicity balance and thus its potential bioavailability. […] The skin penetration of the active compound—bakuchiol in a skin care cream was quantified in an ex-vivo test on isolated human skin. […] In certain embodiments, the disclosed compositions comprise a skin penetration enhancer.
Two natural bakuchiol compositions comprising 86.54% bakuchiol and 77.02% bakuchiol and a combined total of less than 100 ppm psoralen and angelicin (isopsoralen) were formulated in a cosmetic vehicle or complicated skin care cream and tested on in vitro models or in human clinical trials for their safety profile.

[3] = system: subjects with PIH related to acne; assay: Double blind placebo and positive controlled study for PIH related to acne (Example 11); type: in vivo, human; conditions: for PIH grade, mean: cream twice a day to the face
Procedure: The safety and efficacy of a 0.5% (wt/wt) cream of bakuchiol (UP256) was evaluated in a double blind placebo and positive controlled study for the treatment of PIH related to acne. The study evaluated a bakuchiol cream at 0.5% concentration, a 2% Salicylic acid cream and a placebo cream (Vehicle) in an Asian population. The participants were instructed to apply the study creams to the face twice a day (AM/PM). Study participants were given instructions for application and provided with sunscreen.
The study population consisted of male and female subjects older than 18 and younger than 40 years and in generally good health as determined by a medical history. The bakuchiol study arm enrolled 18 subjects, the Salicylic acid (SAL) study arm enrolled 20 subjects, and the placebo study arm enrolled 19 subjects.
The PIH grade is a measure of the severity of the hyperpigmentation (higher number=more severe pigmentation).
Primary Study Objectives: • 1. PIH IGA Time Frame: Baseline and weeks 2, 4 and 8 • 2. PIH % Distribution Time Frame: Baseline and weeks 2, 4 and 8
PIH efficacy was evaluated based on changes from baseline (p<0.05) and over other treatment groups (p<0.05) using t-test or/and ANOVA.
Subject's Assessment questionnaires and Tolerability Assessments were collected at Baseline and weeks 2, 4, and 8. Urine pregnancy tests for females of childbearing potential were collected at Baseline and week 8.
The following data was collected: • 1. Change from baseline in PIH Severity; • 2. Change from baseline in the PIH Grade; and • 3. Change from baseline in the Lesion counts
The data was analyzed from Investigator evaluations at each visit and from photographs taken at the specified time points. The photographs from baseline, week 4, and week 8 were evaluated by a second group of investigators and two independent dermatologists before the study was unblended to further confirm that the population met criteria. The data analyzed is based on confirmed evaluations, there was no photo for week two therefore week two data is not included in the analysis.

[4] = questionnaire and investigator safety evaluation, count

Sequence of mushroom tyrosinase (C7FF04 2-392): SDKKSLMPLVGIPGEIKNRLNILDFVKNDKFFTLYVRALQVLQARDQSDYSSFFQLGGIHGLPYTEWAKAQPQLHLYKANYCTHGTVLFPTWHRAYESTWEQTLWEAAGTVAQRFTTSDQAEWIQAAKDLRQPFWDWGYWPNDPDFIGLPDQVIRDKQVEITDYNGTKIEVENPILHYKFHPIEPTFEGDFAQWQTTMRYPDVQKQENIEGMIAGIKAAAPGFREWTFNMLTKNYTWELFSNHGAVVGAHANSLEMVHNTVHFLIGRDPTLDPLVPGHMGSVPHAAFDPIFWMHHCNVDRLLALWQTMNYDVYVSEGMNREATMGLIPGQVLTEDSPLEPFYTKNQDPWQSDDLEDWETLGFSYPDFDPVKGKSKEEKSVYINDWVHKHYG

**Q.** For `O=C(OOC(=O)c1ccccc1)c1ccccc1` [Benzoyl peroxide (5%), Benzoyl peroxide], which “Improvement of Post Inflammatory Hyperpigmentation” value [1] is on record?
**A.** Its value is 0.

**Q.** What about the “Mean percent reduction in inflammatory lesion counts” value [1] of the same compound?
**A.** The value was 32%.

**Q.** What about the “Mean percent reduction in non-inflammatory lesion counts” value [1] of the same compound?
**A.** Its value is 22%.

**Q.** What about the “Mean percent reduction in total lesion counts” value [1] of the same compound?
**A.** Its value is 28%.

**Q.** For `C=CC(C)(/C=C/c1ccc(O)cc1)CCC=C(C)C` (centres unmarked) [bakuchiol], which tyrosinase inhibition activity (mushroom tyrosinase) is on record?
**A.** Its tyrosinase inhibition activity is “no tyrosinase inhibition function”.

**Q.** What about the “skin penetration / percutaneous absorption” value [2] of the same compound?
**A.** Its value is “good skin penetration and bioavailability”.

**Q.** Which “Inflammatory acne lesions, mean” value ([3]; Baseline) does the source give for `O=C(O)c1ccccc1O` [Salicylic Acid, Salicylic acid] here?
**A.** The value was 11.2.

**Q.** What about the “PIH grade, mean” value ([3]; Baseline) of the same compound?
**A.** The value was 3.15.

**Q.** And the “Inflammatory acne lesions, mean” value ([3]; Week 4)?
**A.** The value was 9.25.

**Q.** What about the “PIH grade, mean” value ([3]; Week 4) of the same compound?
**A.** Its value is 3.2.

**Q.** And the “Inflammatory acne lesions, mean” value ([3]; Week 8)?
**A.** The value was 8.65.

**Q.** What about the “PIH grade, mean” value ([3]; Week 8) of the same compound?
**A.** Its value is 3.2.

**Q.** And the “Subject assessment: Itching/Burning” value [3, 4]?
**A.** Its value is 4.

**Q.** What about the “Subject assessment: Skin Discomfort” value [3, 4] of the same compound?
**A.** Its value is 2.
